Source: patent publication US6544750B1, “Peptide analogs as selective inhibitors of thrombin activation of protease activated receptor 1” (Thromgen, Inc., priority 1999, dated 2003)
“Also recorded” adds a separate entry of the source. Ends that are not written are not given here.

What was measured:
[1] = system: platelets (platelet-rich plasma); assay: γ-thrombin-induced platelet aggregation in platelet-rich plasma; type: cell-based, human; details: for Fold Increase in Aggregation Inhibition over RPPGF: γ-thrombin, compared to RPPGF at 0.2 mM
Method: (§1) Fresh whole blood was collected and mixed with 0.013 M sodium citrate and platelet-rich plasma was prepared according to the method of Meloni et al., J. Biol. Chem. 266, 6786 (1991). Platelet-rich plasma with a normalized platelet count between 2-2.5×10^8 platelets/ml was added to a cuvette of an aggregometer (Chronlog Corp., Havertown, Pa.), standardized using the protocol of Meloni et al., supra. Peptides to be examined were added to the cuvette and the mixture stabilized for a few moments. Once the baseline was stabilized, γ-thrombin (10-70 NM) (Haematologic Technologies, Essex Junction, Vt.) was added to determine the minimal concentration of the agonist necessary to achieve full platelet aggregation. All investigations with peptides were performed using threshold concentrations of γ-thrombin. Aggregation was allowed to proceed for 5 minutes before stopping. When ADP-induced platelet aggregation studies were performed, 1-5 μM ADP (Sigrna) was added to the cuvette containing platelet-rich plasma.

[2] = molecular target: T1, biotin-NAT12 (NATLDPRSFLLR, peptide from PAR1) (Homo sapiens, UniProt P25116); assay: Biotin-NAT12 binding assay to peptides coupled to microtiter plates; details: relative to RPPGF given arbitrary binding level of 1
Method: A third assay was developed to ascertain the ability of biotin-NAT12 (NATLDPRSFLLR, SEQ ID NO: 41) to directly bind to peptides linked to microtiter plates. In this assay, peptide analogs were linked to microtiter plate cuvette wells by incubation of the peptide in 0.1 M Na2CO3, pH 9.6 buffer overnight at 4° C. After coupling the peptide to the cuvette well, the wells were dumped and each well was blocked with 1% bovine serun albumin in 0.01 M Na3PO4, 0.15 M NaCl, at pH 7.4. After incubation for 1 hour, the wells were dumped and washed three times with PBS-Tween. The wells were then incubated with biotin-NAT12. The amount of biotin-NAT12 bound was determined by adding streptavidin-peroxidase followed by adding turbo TMB (Pierce).
In decreasing order of binding level, these peptides include: RGKSC, RGKMC, RGKHC, RGKKC, RGKFC, RGKLC, RGKWC, and RGKVC (SEQ ID NOS 18, 7, 13, 14, 11, 1, 5 and 19, respectively). […] The best to least RGDO4C (SEQ ID NO: 44) peptides to bind biotin-NAT12 listed in Table VI are: RGDSC, RGDGC, RGDQC, RGDEC, RGDIC, RGDPC, RGDDC, and RGDYC (SEQ ID NOS 34, 28, 23, 22, 36, 38, 27 and 35, respectively). A solid phase peptide-peptide binding assay was used to determine biotin-NAT12 binding to library peptides. Test peptides in 0.1 M Na2CO3, pH 9.6 buffer, at 10 μg/well in 50 μl volume, were coupled to microtiter plate wells by overnight incubation at 4° C. After incubation, the contents of the wells were discarded and the wells were washed with a pH 7.4 buffer containing 0.01 M Na3PO4, 0.15 M NaCl, and 0.01% Tween 20. After blocking each well with 1% radioimmunoassay grade bovine serum albumin, the linked peptides were incubated with 100 μl of 100 μM biotin-NAT12 for 1 hour at 37° C. After incubation, the contents of the wells were dumped and the wells were washed three times (100 μl/well each time) with the buffer identified above. Each well then was incubated with 100 μl of 2 μg/ml solution of Immuno-Pure streptoavidin horeseradish peroxidase conjugate (Pierce Chemical Co., […], Ill.) for 1 hour at room temperature. The contents of the wells were discarded and the wells were washed three times as described above. The wells were then incubated with 100 μl of peroxidase-specific fast reacting substrate, turbo-3,3′,5,5′-tetramethylbenzidine (turbo-TMB, Pierce) for 5 minutes at room temperature and the developing color reaction was stopped by the addition of 100 μof 1 M phosphoric acid. The absorbance was measured at 450 nm using a Microplate Auto Reader EL311 (Bio-Tek, Winooski, Vt.).

[3] = system: Normal human lung fibroblasts (NHLF); assay: α-thrombin-induced calcium mobilization in fibroblasts (fura-2); type: cell-based; details: for Ca2+ % Inhibition At 0.2 mM Peptide: thrombin-induced calcium mobilization in fibroblasts
Method: The second assay developed to assess peptides from the combinatorial libraries uses inhibition of α-thrombin-induced calcium mobilization in fibroblasts. Normal human lung fibroblasts (NHLF) were purchased from Clonetics, San Diego, Calif., an affiliate of Bio-Wittaker, Walkersville, Md. The cytoplasmic free Ca^2+ concentration ([Ca^2+]i) was measured using the fluorescent Ca^2+ indicator fura-2 (Molecular Probes, Inc., Eugene, Oreg.). Suspension of fibroblasts in Hepes-Tyrode's buffer were loaded with fura-2 by incubation at 37° C. with 2 μM fura-2/acetoxymethyl ester for 45 minutes according to the method of Rasmussen et al., J. Biol. Chem. 268, 14322 (1993). The labeled fibroblasts were separated from excess probe by washing by centrifugation at 1000 rpm (180×g). Aliquots of the labeled fibroblasts were transferred into a quartz cuvette with a magnetic stirrer, which was then placed in a thennostatically controlled chamber at 37° C. in a fluorescence spectrophotometer (Perkin-Elmer LS50B spectrofluorometer, Chicago, Ill.). Reagents, test peptide (SEQ ID NO: 5) (from 0.2 mM to effective lower concentration), and α-thrombin (2-4 nM), were sequentially added directly to the cuvette. The excitation wavelengths varied between 340 and 380 nm. Fluorescence was measured by recording emitted light at 510 nm as reported by Fisher et al., Mol Pharm. 35, 195 (1989). The minimum emission was determined on a solubilized fibroblast sample in the presence of 10 mM EDTA; maximum emission was determined on the same sample with 10 mM Ca^2+ added. The intrafibroblast free Ca^2+ concentration was calculated by the method of Grykiewicz et al., J. Biol. Chem. 260, 3440 (1985). The ratio of the fluorescence readings was calculated as R=340/380 nm and processed according to the equation [Ca^2+]i=KD((R−Rmim)/Rmax−R)) (Sf2/Sb2) to determine the intrafibroblast free Ca^2+ concentration. The KD for fura-2 was assumed to be 224 nM. Rmax and Rmin are the maximum and minimum fluorescence ratios measured at the end of the experiment, respectively; Sf2 and Sb2 are the fluorescence values at 380 nm in the absence and presence of saturating [Ca 2+], respectively. The reaction was monitored for 3-5 minutes. […] In FIG. 4, peptide RGDWC (SEQ ID NO: 20) at 0.2 mM inhibited 31% of 4 nM α-thrombin-induced Ca^2+ mobilization in fibroblasts.

[4] = molecular target: T1, biotin-NAT12 (NATLDPRSFLLR, peptide from PAR1); assay: Biotin-NAT12 binding assay to peptides coupled to microtiter plates; details: peptides at 10 μg/ml coupled to microtiter plate
[5] = system: platelets (platelet-rich plasma); assay: ADP-induced platelet aggregation in platelet-rich plasma; type: cell-based, human; details: 1 mM peptide, 4.5 μM ADP
Method: as §1

[6] = RGDO4C sublibrary, 0.2 mM peptide
[7] = 70 nM γ-thrombin, platelet-rich plasma
[8] = RGKO4C sublibrary, platelet-rich plasma
[9] = RGKO4C sublibrary, 0.2 mM peptide

Substance	Level of Binding to Biotin-NAT12 ([2]; RGDO4C sublibrary)	Level of Binding to Biotin-NAT12 ([2]; RGKO4C sublibrary)	Fold Increase in Aggregation Inhibition over RPPGF ([1]; RGDO4C sublibrary) [fold]	Ca2+ % Inhibition At 0.2 mM Peptide [3, 6] [%]	Fold Increase in Aggregation Inhibition over RPPGF [1, 8] [fold]	Ca2+ % Inhibition At 0.2 mM Peptide [3, 9] [%]	other results
Arg-Gly-Asp-Trp-Cys (RGDWC-NH2) [peptide of the H-R-G-D-O4-C-NH2 sublibrary]	0.374	–	31.7	31.9	–	–	concentration down to which peptide inhibited γ-thrombin-induced platelet aggregation ([1]; 70 nM γ-thrombin): ≥ 25 µM; peptide concentration at which γ-thrombin-induced platelet aggregation returned ([1]; 70 nM γ-thrombin): 0.00625 mM; peptide concentration that abolished (completely inhibited) γ-thrombin-induced platelet aggregation [1, 7]: 0.2 mM; effect on thrombin-induced Ca2+ mobilization (in words) ([3]; 0.2 mM peptide, 4 nM α-thrombin): almost had no effect; inhibition of α-thrombin-induced Ca2+ mobilization ([3]; 0.2 mM peptide, 4 nM α-thrombin, fibroblasts): 31%
RGKIC: peptide of the H-R-G-K-O4-C-NH2 sublibrary (H-RGKIC-NH2)	–	0.98	–	–	1.3	13.8	–
RGDMC: peptide of the H-R-G-D-O4-C-NH2 sublibrary (H-RGDMC-NH2)	0.87	–	15	26.2	–	–	–
RGDNC: peptide of the H-R-G-D-O4-C-NH2 sublibrary (H-RGDNC-NH2)	0.739	–	5	44.3	–	–	–
RGDRC: peptide of the H-R-G-D-O4-C-NH2 sublibrary (H-RGDRC-NH2)	0.99	–	5	0	–	–	–
RGKMC: peptide of the H-R-G-K-O4-C-NH2 sublibrary (H-RGKMC-NH2)	–	2.1	–	–	1.3	7.95	–

Further lines, with some results ahead:

Level of Binding to Biotin-NAT12 ([2]; RGDO4C sublibrary)	Level of Binding to Biotin-NAT12 ([2]; RGKO4C sublibrary)	Substance	Fold Increase in Aggregation Inhibition over RPPGF ([1]; RGDO4C sublibrary) [fold]	Ca2+ % Inhibition At 0.2 mM Peptide [3, 6] [%]	Fold Increase in Aggregation Inhibition over RPPGF [1, 8] [fold]	Ca2+ % Inhibition At 0.2 mM Peptide [3, 9] [%]	other results
1.44	–	RGDSC: peptide of the H-R-G-D-O4-C-NH2 sublibrary (H-RGDSC-NH2)	5	0	–	–	level of biotin-NAT12 binding compared with other peptides (in words) [4]: equivalent to the ability of RGKWC
–	1.3	Arg-Gly-Lys-Trp-Cys (RGKWC-NH2) [peptide of the H-R-G-K-O4-C-NH2 sublibrary]	–	–	1.3	62.5	peptide concentration at which γ-thrombin-induced platelet aggregation returned [1, 7]: 0.125 mM; effect on ADP-induced platelet aggregation (in words) [5]: did not inhibit; peptide concentration at which α-thrombin overcame the inhibitory effect on Ca2+ mobilization ([3]; 2 nM α-thrombin, fibroblasts): 12.5 µM; peptide concentration at which α-thrombin-induced calcium mobilization is abolished ([3]; 2 nM α-thrombin, fibroblasts): 0.2 mM; peptide concentrations blocking α-thrombin-induced Ca2+ mobilization ([3]; 2 nM α-thrombin, fibroblasts): ≥ 50 µM; level of biotin-NAT12 binding compared with other peptides (in words) [4]: binds to a greater extent than peptide RGDWC; also recorded: greater than RPPGF; also recorded: less than that seen with the multiple branched peptide MAP4RPPGF
1	1.0	Arg-Pro-Pro-Gly-Phe (RPPGF) [bradykinin analog peptide used as control, reference compound]	1	–	1.0	–	peptide concentration at which γ-thrombin-induced platelet aggregation returned [1, 7]: 0.25 mM; effect on ADP-induced platelet aggregation (in words) [5]: did not inhibit
1.39	–	RGDGC: peptide of the H-R-G-D-O4-C-NH2 sublibrary (H-RGDGC-NH2)	7.5	9.9	–	–	–
–	0.94	RGKYC: peptide of the H-R-G-K-O4-C-NH2 sublibrary (H-RGKYC-NH2)	–	–	1.3	0	–
